IC50 data for 4 compounds are collected here from patent publication EP1674470A1, “Sulfonamido-macrocycles as Tie2 inhibitors” (Schering Aktiengesellschaft, priority 2004, dated 2006).

As a reminder, the IC50 is the concentration that inhibits the measured activity by half. Read a low IC50 as higher potency.

For the test, the system named is DU 145. The test is described as follows: Proliferation test (cytotoxicity assay, crystal violet staining). Type of test: cell-based. Particulars: Homo sapiens; cytotoxicity assay using the cell line DU 145. The protocol: Biological experiment 3: Proliferation test
To examine cell toxicity a cell proliferation test were established.
With the cell proliferation test different tumour cell lines (e.g. Du 145) can be examined. The cells were dispensed in RPMI 1640 culture medium, supplied with 10 % (v/v) fetal calf serum plus 1 % (v/v) Penicillin/Streptomycin solution at a cell density of 2.000 cell/100µL medium/per well (96well plate). After three hours the cells were washed with PBS (containing calcium and magnesium). 100 µl of culture medium above with 0.1 % (v/v) fetal calf serum was added and cultured at 37°C and 5% CO2-atmosphere. Next day compounds of the present invention diluted in DMSO for appropriate concentrations were added and further 100 µL culture medium 0.5 % (v/v) fetal calf serum. After 5 days cell culturing at 37°C and 5% CO2-atmosphere cells were washed with PBS. 20 µL of glutaraldehyde solution (11 % (v/v)) is added and the cells were slightly shaken at room temperature for 15 min. After that the cell were washed 3 times and dried in the air. 100 µL of crystal violet solution (0.1 % at pH 3.5) were added and the cells were shaken for 30 min. The cells were washed with tap water and air-dried. The colour is dissolved with 100 µL of acetic acid (10 % (v/v)) under strong shaking for 5 min. The absorption was measured at 595 nm wavelength.
In the case of `COC(=O)c1ccc(-c2cnc3nc2NCCCNS(=O)(=O)c2cccc(c2)N3)cc1` [Example Compound 1.1, methyl 4-[4,4-dioxo-4λ^6-thia-2,5,9-triaza-1(2,4)-pyrimidina-3(1,3)-benzenacyclononaphan-1^5-yl]benzoate], the IC50 was above 1000 nM.

Consider `COc1ccc(-c2cnc3nc2NCCCNS(=O)(=O)c2cccc(c2)N3)cc1` [Example Compound 1.5, 1^5-(4-methoxyphenyl)-4-thia-2,5,9-triaza-1(2,4)-pyrimidina-3(1,3)-benzenacyclononaphane 4,4-dioxide], for which the IC50 is above 1000 nM.

With `O=S1(=O)NCCCNc2nc(ncc2-c2ccccc2)Nc2cccc1c2` [Example Compound 1.3, 1^5-phenyl-4-thia-2,5,9-triaza-1(2,4)-pyrimidina-3(1,3)-benzenacyclononaphane 4,4-dioxide], the concentration for half-maximal inhibition (IC50) is above 1000 nM.

In turn, `CC(=O)c1ccc(-c2cnc3nc2NCCCNS(=O)(=O)c2cccc(c2)N3)cc1` [Example Compound 1.2, 1-[4-[4,4-dioxo-4λ^6-thia-2,5,9-triaza-1(2,4)-pyrimidina-3(1,3)-benzenacyclononaphan-1^5-yl]phenyl]ethanone] came in with an IC50 above 1000 nM.
